In patent publication US11590142B2, “Oxazolidinone antibiotic compounds and process of preparation” (Bugworks Research, Inc., priority 2018, dated 2023):
In brackets after ≈: the same amount, converted by molar mass.

Tests used:
Assay type in all cases: cell-based
[1] = tested on: Klebsiella pneumoniae ATCC 13883; test: Minimum Inhibitory Concentration (MIC) in LB media; conditions: ATCC13883, read-out: Minimum Inhibitory Concentration K. pneumoniae ATCC 13883
Protocol: (§1) Biological Activity (Antibacterial activity): The compounds of Formula (I) are of interest due to their potent antibacterial effects. […] The medium sterility is checked by incubating at 37° C. for a period of 48 h. Bacterial cultures that are stored as glycerol stocks at -80° C. are sub cultured on LB agar plates to obtain isolated colonies. A single colony of each strain is cultured in LB broth. The cultures are incubated at 37° C., 200 rpm till they reach an optical density (OD at 600 nm) of 0.8 to 1. […] Test compounds are dissolved in dimethyl sulfoxide (DMSO) to a stock concentration of 4 mg/mi. A twofold dilution series of this DMSO stock is prepared in a 96 well V bottom microtitre plate from rows A to H. A 3 μL volume of these dilutions are transferred to a 96-well flat bottom microtitre assay plate. Controls to monitor the effects of DMSO and media sterility are included. Each well is inoculated with 150 μL of the above diluted culture. The plates are incubated at 37° C. overnight in a humidified incubator. The following morning, the plates are read using a Spectrophotometer at 600 nm wavelength.

[2] = tested on: Acinetobacter baumannii ATCC 19606; test: Minimum Inhibitory Concentration (MIC) in LB media; conditions: ATCC19606
Protocol: as §1

[3] = tested on: Escherichia coli ATCC 25922; test: Minimum Inhibitory Concentration (MIC) in LB media; conditions: ATCC25922, read-out: Minimum Inhibitory Concentration E. coli ATCC 25922
Protocol: as §1

[4] = tested on: Pseudomonas aeruginosa ATCC 27853; test: Minimum Inhibitory Concentration (MIC) in LB media; conditions: ATCC27853, read-out: Minimum Inhibitory Concentration P. aurigenosa ATCC 27853
Protocol: as §1

[5] = tested on: Staphylococcus aureus ATCC 29213; test: Minimum Inhibitory Concentration (MIC) in LB media; conditions: ATCC29213, read-out: Minimum Inhibitory Concentration S. aureus ATCC 29213
Protocol: as §1

[6] = tested on: Enterococcus faecalis ATCC 29212; test: Minimum Inhibitory Concentration (MIC) in LB media; conditions: ATCC29212, read-out: Minimum Inhibitory Concentration E. faecalis ATCC 29212
Protocol: as §1

[7] = biological target: human ether a go-go related gene (hERG) K+ channel (Homo sapiens (Human), UniProt Q12809); test: hERG inhibition assay, QPatch HTX automated electrophysiology; conditions: CHO cell line stably expressing hERG, whole-cell patch clamp, maximum test concentration 300 μM
Protocol: The compounds were tested for inhibition of the human ether a go-go related gene (hERG) K+ channel using QPatch HTX automated electrophysiology. […] Compounds were solubilised to 100 mM in DMSO before dilution in HBPS to 300 μM. […] Electrophysiological recordings were made from a Chinese Hamster Ovary cell line stably expressing the full-length hERG potassium channel. Single cell ionic currents were measured in whole-cell patch clamp configuration at room temperature (21-23° C.) using the QPatch HTX platform (Sophion). Intracellular solution contained (mM): 120 KF, 20 KCl, 10 EGTA, 10 HEPES and was buffered to pH 7.3. […] Cells were clamped at a holding potential of −80 mV. Cells were stepped to +20 mV for 2 s then −40 mV for 3s before returning to the holding potential. This sweep was repeated 10 times at 10 s intervals. hERG currents were measured from the tail step and referenced to the holding current. Compounds were then incubated for 2 minutes prior to a second measurement of ion channel current using an identical pulse train.

K. pneumoniae ATCC13883 = test: Antibacterial susceptibility study, reference strain, CLSI guidelines
E. coli ATCC25922 = test: as above
[8] = tested on: P. aurigenosa clinical strains; test: Antibacterial susceptibility studies (MIC50 and MIC90), clinical strains, CLSI guidelines
A. baumannii ATCC19606 = test: Antibacterial susceptibility study, reference strain, CLSI guidelines
[9] = tested on: A. baumannii clinical strains; test: Antibacterial susceptibility studies (MIC50 and MIC90), clinical strains, CLSI guidelines
[10] = tested on: K. pneumoniae clinical strains; test: as above
[11] = tested on: E. cloacae clinical strains; test: as above
P. aurigenosa ATCC27853 = test: Antibacterial susceptibility study, reference strain, CLSI guidelines
E. coli clinical strains = test: Antibacterial susceptibility studies (MIC50 and MIC90), clinical strains, CLSI guidelines

human ether a go-go related gene (hERG) K+ channel, sequence (Q12809 whole entry): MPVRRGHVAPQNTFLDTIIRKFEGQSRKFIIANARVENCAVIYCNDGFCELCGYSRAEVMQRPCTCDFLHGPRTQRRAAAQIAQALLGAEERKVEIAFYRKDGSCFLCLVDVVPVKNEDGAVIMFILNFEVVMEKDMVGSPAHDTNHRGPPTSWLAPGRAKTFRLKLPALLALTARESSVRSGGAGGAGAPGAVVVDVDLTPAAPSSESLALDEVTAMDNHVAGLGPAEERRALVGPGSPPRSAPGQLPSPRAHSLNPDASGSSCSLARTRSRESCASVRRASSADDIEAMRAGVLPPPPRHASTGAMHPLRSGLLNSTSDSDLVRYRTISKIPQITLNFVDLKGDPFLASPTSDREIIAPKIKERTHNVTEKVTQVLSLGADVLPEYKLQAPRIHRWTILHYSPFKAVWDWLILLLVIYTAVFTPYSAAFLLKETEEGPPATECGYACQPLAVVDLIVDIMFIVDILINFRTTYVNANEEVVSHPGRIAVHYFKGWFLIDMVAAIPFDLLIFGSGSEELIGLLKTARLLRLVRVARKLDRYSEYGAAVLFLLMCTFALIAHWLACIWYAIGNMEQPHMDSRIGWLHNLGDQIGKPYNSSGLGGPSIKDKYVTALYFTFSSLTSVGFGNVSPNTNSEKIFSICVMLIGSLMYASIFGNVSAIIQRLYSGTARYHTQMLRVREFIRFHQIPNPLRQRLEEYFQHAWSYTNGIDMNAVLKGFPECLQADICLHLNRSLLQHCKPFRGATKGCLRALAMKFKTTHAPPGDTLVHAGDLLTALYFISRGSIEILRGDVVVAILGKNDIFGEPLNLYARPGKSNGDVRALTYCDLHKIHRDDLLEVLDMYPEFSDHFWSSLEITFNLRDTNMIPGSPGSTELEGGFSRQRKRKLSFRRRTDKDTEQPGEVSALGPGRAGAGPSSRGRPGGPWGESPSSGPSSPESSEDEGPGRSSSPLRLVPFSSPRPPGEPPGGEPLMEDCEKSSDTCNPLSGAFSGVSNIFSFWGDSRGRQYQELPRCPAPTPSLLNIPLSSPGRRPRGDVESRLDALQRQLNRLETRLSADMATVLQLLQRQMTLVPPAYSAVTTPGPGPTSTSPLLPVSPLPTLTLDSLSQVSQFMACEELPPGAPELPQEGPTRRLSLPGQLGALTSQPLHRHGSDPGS

Row | SMILES | MIC [1] [µg/mL] | MIC [2] [µg/mL] | MIC [3] [µg/mL] | MIC [4] [µg/mL] | MIC [5] [µg/mL] | MIC [6] [µg/mL] | IC50 [7] [µM] | other results
1 | O=C(O)c1cn(C2CC2)c2cc(N3CCNCC3)c(F)cc2c1=O [Ciprofloxacin, reference compound] | 0.05 (≈ 0.151 µM) | 0.4 (≈ 1.21 µM) | 0.012 (≈ 0.0362 µM) | 0.1 (≈ 0.302 µM) | 0.4 (≈ 1.21 µM) | 0.4 (≈ 1.21 µM) | – | –
2 | Cn1c(=O)cnc2ccc(OCCNCCC3CN(c4ccc5c(n4)NC(=O)CO5)C(=O)O3)nc21 (centres unmarked) [Compound 1, 6-(5-(2-((2-((4-methyl-3-oxo-3,4-dihydropyrido[2,3-b]pyrazin-6-yl)oxy)ethyl)amino)ethyl)-2-oxooxazolidin-3-yl)-2H-pyrido[3,2-b][1,4]oxazin-3(4H)-one] | 0.25 (≈ 0.519 µM) | 0.06 (≈ 0.125 µM) | 0.06 (≈ 0.125 µM) | 1 (≈ 2.08 µM) | 0.13 (≈ 0.27 µM) | 0.5 (≈ 1.04 µM) | – | –
3 | Cn1c(=O)ccc2ncc(OCCNCCC3CN(c4ccc5c(n4)NC(=O)CO5)C(=O)O3)nc21 (centres unmarked) [Compound 2, 6-(5-(2-((2-((5-methyl-6-oxo-5,6-dihydropyrido[2,3-b]pyrazin-3-yl)oxy)ethyl)amino)ethyl)-2-oxooxazolidin-3-yl)-2H-pyrido[3,2-b][1,4]oxazin-3(4H)-one] | 0.25 (≈ 0.519 µM) | 0.06 (≈ 0.125 µM) | 0.13 (≈ 0.27 µM) | 0.5 (≈ 1.04 µM) | 0.06 (≈ 0.125 µM) | 1 (≈ 2.08 µM) | – | –
4 | Cn1c(=O)cnc2ccc(OCCNC[C@H]3CN(c4ccc5c(n4)NC(=O)CO5)C(=O)O3)nc21 [Compound 3, (S)-6-(5-(((2-((4-methyl-3-oxo-3,4-dihydropyrido[2,3-b]pyrazin-6-yl)oxy)ethyl)amino)methyl)-2-oxooxazolidin-3-yl)-2H1-pyrido[3,2-b][1,4]oxazin-3(4H)-one] | 0.25 (≈ 0.535 µM) | 0.06 (≈ 0.128 µM) | 0.06 (≈ 0.128 µM) | 2 (≈ 4.28 µM) | 0.06 (≈ 0.128 µM) | 0.25 (≈ 0.535 µM) | 40 | –
5 | Cn1c(=O)cnc2ccc(OCCNC[C@@H]3CN(c4ccc5c(n4)NC(=O)CO5)C(=O)O3)nc21 [Compound 4, (R)-6-(5-(((2-((4-methyl-3-oxo-3,4-dihydropyrido[2,3-b]pyrazin-6-yl)oxy)ethyl)amino)methyl)-2-oxooxazolidin-3-yl)-2H-pyrido[3,2-b][1,4]oxazin-3(4H)-one] | 0.25 (≈ 0.535 µM) | 0.06 (≈ 0.128 µM) | 0.06 (≈ 0.128 µM) | 2 (≈ 4.28 µM) | 0.06 (≈ 0.128 µM) | 0.25 (≈ 0.535 µM) | 38 | –
6 | Cn1c(=O)ccc2ncc(OCCNC[C@H]3CN(c4ccc5c(n4)NC(=O)CO5)C(=O)O3)nc21 [Compound 5, (S)-6-(5-(((2-((5-methyl-6-oxo-5,6-dihydropyrido[2,3-b]pyrazin-3-yl)oxy)ethyl)amino)methyl)-2-oxooxazolidin-3-yl)-2H1-pyrido[3,2-b][1,4]oxazin-3(4H)-one] | 0.25 (≈ 0.535 µM) | 0.25 (≈ 0.535 µM) | 0.25 (≈ 0.535 µM) | 4 (≈ 8.56 µM) | 0.25 (≈ 0.535 µM) | 0.5 (≈ 1.07 µM) | 82 | –
7 | Cn1c(=O)ccc2ncc(OCCNC[C@@H]3CN(c4ccc5c(n4)NC(=O)CO5)C(=O)O3)nc21 [Compound 6, (R)-6-(5-(((2-((5-methyl-6-oxo-5,6-dihydropyrido[2,3-b]pyrazin-3-yl)oxy)ethyl)amino)methyl)-2-oxooxazolidin-3-yl)-2H-pyrido[3,2-b][1,4]oxazin-3(4H)-one] | 0.25 (≈ 0.535 µM) | 0.13 (≈ 0.278 µM) | 0.13 (≈ 0.278 µM) | 2 (≈ 4.28 µM) | 0.13 (≈ 0.278 µM) | 0.25 (≈ 0.535 µM) | 60 | –
8 | Cn1c(=O)cnc2ccc(OCCNC[C@@H]3CN(c4cnc5c(n4)NC(=O)CO5)C(=O)O3)nc21 [Compound 8, (R)-6-(5-(((2-((4-methyl-3-oxo-3,4-dihydropyrido[2,3-b]pyrazin-6-yl)oxy)ethyl)amino)methyl)-2-oxooxazolidin-3-yl)-2H1-pyrazino[2,3-b][1,4]oxazin-3(4H)-one] | 0.25 (≈ 0.534 µM) | 0.5 (≈ 1.07 µM) | 0.06 (≈ 0.128 µM) | 1 (≈ 2.13 µM) | 0.125 (≈ 0.267 µM) | 0.5 (≈ 1.07 µM) | > 300 | –
9 | Cn1c(=O)cnc2cc(F)c(OCCNC[C@H]3CN(c4cnc5c(n4)NC(=O)CO5)C(=O)O3)nc21 [Compound 10, (S)-6-(5-(((2-((7-fluoro-4-methyl-3-oxo-3,4-dihydropyrido[2,3-b]pyrazin-6-yl)oxy)ethyl)amino)methyl)-2-oxooxazolidin-3-yl)-2H-pyrazino[2,3-b][1,4]oxazin-3(4H)-one] | 0.25 (≈ 0.514 µM) | 0.5 (≈ 1.03 µM) | 0.06 (≈ 0.123 µM) | 1 (≈ 2.06 µM) | 0.06 (≈ 0.123 µM) | 0.25 (≈ 0.514 µM) | > 300 | –
10 | CCn1c(=O)cnc2ccc(OCCNC[C@H]3CN(c4cnc5c(n4)NC(=O)CO5)C(=O)O3)nc21 [Compound 11, (S)-6-(5-(((2-((4-ethyl-3-oxo-3,4-dihydropyrido[2,3-b]pyrazin-6-yl)oxy)ethyl)amino)methyl)-2-oxooxazolidin-3-yl)-2H-pyrazino[2,3-b][1,4]oxazin-3(4H)-one] | 0.5 (≈ 1.04 µM) | 0.5 (≈ 1.04 µM) | 0.125 (≈ 0.259 µM) | 2 (≈ 4.15 µM) | 0.03 (≈ 0.0622 µM) | 1 (≈ 2.07 µM) | – | –
11 | Cn1c(=O)cnc2cc(Cl)c(OCCNC[C@H]3CN(c4cnc5c(n4)NC(=O)CO5)C(=O)O3)nc21 [Compound 12, (S)-6-(5-(((2-((7-Chloro-4-methyl-3-oxo-3,4-dihydropyrido[2,3-b]pyrazin-6-yl)oxy)ethyl)amino)methyl)-2-oxooxazolidin-3-yl)-2H-pyrazino[2,3-b][1,4]oxazin-3(4H)-one] | 0.25 (≈ 0.497 µM) | 0.5 (≈ 0.994 µM) | 0.125 (≈ 0.249 µM) | 4 (≈ 7.95 µM) | 0.125 (≈ 0.249 µM) | 0.25 (≈ 0.497 µM) | 98 | –
12 | Cn1c(=O)cnc2ccc(OCCNC[C@H]3CN(c4cnc5c(n4)NC(=O)CS5)C(=O)O3)nc21 [Compound 13, (S)-5-(((2-((4-Methyl-3-oxo-3,4-dihydropyrido[2,3-b]pyrazin-6-yl)oxy)ethyl)amino)methyl)-3-(3-oxo-3,4-dihydro-2H-pyrazino[2,3-b][1,4]thiazin-6-yl)oxazolidin-2-one] | 0.03 (≈ 0.0619 µM) | 0.03 (≈ 0.0619 µM) | 0.03 (≈ 0.0619 µM) | 0.5 (≈ 1.03 µM) | ≤ 0.03 | 0.1 (≈ 0.206 µM) | – | –
13 | C[C@@H](O)[C@H]1C(=O)N2C(C(=O)O)=C(S[C@@H]3CN[C@H](C(=O)N(C)C)C3)[C@H](C)[C@H]12 [Meropenem, reference compound] | – | – | – | – | – | – | – | ATCC13883 (MIC) (K. pneumoniae ATCC13883): 0.06 µg/mL; ATCC25922 (MIC) (E. coli ATCC25922): 0.06 µg/mL; MIC50 [8]: 2 µg/mL (≈ 5.22 µM); MIC90 [8]: 8 µg/mL (≈ 20.9 µM); Minimum (MIC) [8]: 0.03 µg/mL; ATCC19606 (MIC) (A. baumannii ATCC19606): 0.5 µg/mL; MIC50 [9]: 8 µg/mL (≈ 20.9 µM); MIC90 [9]: 32 µg/mL (≈ 83.4 µM); Minimum (MIC) ([9]; in µg/mL): 0.03125; MIC50 [10]: 1 µg/mL (≈ 2.61 µM); MIC90 [10]: 16 µg/mL (≈ 41.7 µM); Minimum (MIC) [10]: 0.03 µg/mL; MIC50 [11]: 0.25 µg/mL (≈ 0.652 µM); MIC90 [11]: 16 µg/mL (≈ 41.7 µM); Minimum (MIC) [11]: 0.06 µg/mL; ATCC27853 (MIC) (P. aurigenosa ATCC27853): 0.5 µg/mL; MIC50 (E. coli clinical strains): 0.06 µg/mL (≈ 0.156 µM); MIC90 (E. coli clinical strains): 4 µg/mL (≈ 10.4 µM); Minimum (MIC) (E. coli clinical strains): 0.03 µg/mL
